In patent US8546608B2, “Proteasome inhibitors and methods of using the same” (Cephalon, Inc., priority 2003, dated 2013):

Columns and labels:
[1] = biological target: T1, 20S Human Erythrocyte Proteasome (HEP) (Homo sapiens, UniProt P20618+P28074); experiment: Chymotrypsin-like activity of 20S Human Erythrocyte Proteasome (HEP), IC50 determination; assay type: biochemical; conditions: assay of Example C, inhibition of HEP
T1 construct: 20S Human Erythrocyte Proteasome (HEP), purchased from Immatics Biotechnologies Inc; purchased Immatics Biotechnologies Inc., Tübingen, Germany; host or cells: human erythrocytes (natural source)
Outline: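 20S proteasome at 0.2 μg/mL (about 0.6 nM catalytic sites) in 20 mM Tris with 0.04% SDS, preincubated 15 min at 37° C with inhibitor before Suc-LLVY-AMC (100 μM final). AMC fluorescence read in the linear range; triplicates, IC50 from concentration series.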

[2] = biological target: T2, proteasome in Molt-4 cells (human leukemia) (Homo sapiens, UniProt P20618+P28074); assay type: cell-based; conditions: assay of Example E, inhibition of MOLT4; read-out: MOLT4 (EC50)
T2 sequence (P28074 60-263): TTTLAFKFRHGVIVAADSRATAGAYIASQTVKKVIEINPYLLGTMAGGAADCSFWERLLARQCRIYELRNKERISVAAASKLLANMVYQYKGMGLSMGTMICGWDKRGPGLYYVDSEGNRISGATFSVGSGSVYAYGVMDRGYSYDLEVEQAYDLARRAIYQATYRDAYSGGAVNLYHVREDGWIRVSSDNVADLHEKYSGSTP
T2 sequence (P20618 29-241): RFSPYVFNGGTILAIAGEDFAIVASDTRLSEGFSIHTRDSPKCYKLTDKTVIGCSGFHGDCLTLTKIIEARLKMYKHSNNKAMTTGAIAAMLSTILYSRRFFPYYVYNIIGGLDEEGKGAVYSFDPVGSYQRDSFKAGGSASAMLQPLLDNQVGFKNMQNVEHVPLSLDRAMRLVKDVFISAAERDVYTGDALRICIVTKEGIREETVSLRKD
Outline: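 Intact Molt-4 cells (6×10^6 cells/mL) in HEPES-buffered saline were preincubated with inhibitor 15 min at 37 °C, then given cell-permeable MeOSuc-FLF-AFC at 25 μM final.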

| Structure (SMILES) | IC50 [1] [nM] | EC50 [2] [nM] |
| --- | --- | --- |
| CCCCCC/C=C/C(=O)N[C@@H](CCCNC(=N)N[N+](=O)[O-])C(=O)N[C@@H](CC(C)C)B1O[C@@H]2C[C@@H]3C[C@@H](C3(C)C)[C@]2(C)O1 [D.3.96, Non-2-enoic acid amide,N-[(1S)-1-[[[(1R)-1-[(3aS,4S,6S,7aR)-hexahydro-3a,5,5-trimethyl-4,6-methano-1,3,2-benzodioxaborol-2-yl]-3-methylbutyl]amino]carbonyl]-4-[[imino(nitroamino)methyl]amino]butyl]] | < 10 | < 200 |
| CC(C)C[C@H](NC(=O)[C@@H](NC(=O)c1ccccc1)[C@@H](C)O)B1O[C@@H]2C[C@@H]3C[C@@H](C3(C)C)[C@]2(C)O1 [D.3.174, Benzamide,N-[(1S,2R)-1-[[[(1R)-1-[(3aS,4S,6S,7aR)-hexahydro-3a,5,5-trimethyl-4,6-methano-1,3,2-benzodioxaborol-2-yl]-3-methylbutyl]amino]carbonyl]-2-hydroxypropyl]] | < 100 | < 200 |
| CC(C)C[C@H](NC(=O)[C@H](CCCNC(=N)N[N+](=O)[O-])NC(=O)c1ccc(-n2cccc2)cc1)B(O)O [D.7.27, Boronic acid, [(1R)-1-[[(2S)-5-[[imino(nitroamino)methyl]amino]-2-[(4-pyrrol-1-ylbenzoyl)amino]-1-oxopentyl]amino]-3-methylbutyl]] | < 10 | 2000 to 10000 |
| CCCCc1ccc(NC(=O)N[C@@H](CCCNC(=N)N[N+](=O)[O-])C(=O)N[C@@H](CC(C)C)B2O[C@@H]3C[C@@H]4C[C@@H](C4(C)C)[C@]3(C)O2)cc1 [D.6.8, N-[(1S)-1-[[[(1R)-1-[(3aS,4S,6S,7aR)-hexahydro-3a,5,5-trimethyl-4,6-methano-1,3,2-benzodioxaborol-2-yl]-3-methylbutyl]amino]carbonyl]-4-[[imino(nitroamino)methyl]amino]butyl]-N′-(4-butylphenyl) urea] | < 100 | < 200 |
| CC(C)C[C@H](NC(=O)[C@H](CCCNC(=N)N[N+](=O)[O-])NC(=O)C1CCN(C(=O)OC(C)(C)C)CC1)B(O)O (racemic) [D.7.7, Boronic acid, [(1R)-1-[[(2S)-5-[[imino(nitroamino)methyl]amino]-2-[[(4RS)-1-[(1,1-dimethylethoxy)carbonyl]piperidine-4-carbonyl]amino]-1-oxopentyl]amino]-3-methylbutyl]] | < 10 | > 10000 |
| CCCCc1ccc(C(=O)N[C@@H](CCCNC(=N)N[N+](=O)[O-])C(=O)N[C@@H](CC(C)C)B(O)O)cc1 [E.1.3, Boronic acid, [(1R)-1-[[(2S)-5-[[imino(nitroamino)methyl]amino]-2-[(4-butyl-benzoyl)amino]-1-oxopentyl]amino]-3-methylbutyl]] | < 10 | 200 to 2000 |
| CCCCCCCCCCCCCC(=O)N[C@@H](CCCNC(=N)N[N+](=O)[O-])C(=O)N[C@@H](CC(C)C)B1O[C@@H]2C[C@@H]3C[C@@H](C3(C)C)[C@]2(C)O1 [D.3.102, Tetradecanamide,N-[(1S)-1-[[[(1R)-1-[(3aS,4S,6S,7aR)-hexahydro-3a,5,5-trimethyl-4,6-methano-1,3,2-benzodioxaborol-2-yl]-3-methylbutyl]amino]carbonyl]-4-[[imino(nitroamino)methyl]amino]butyl]] | < 10 | 200 to 2000 |
| CCCCc1ccc(C(=O)N[C@H](C(=O)N[C@@H](CC(C)C)B2OC3(CCCCC3)C3(CCCCC3)O2)[C@@H](C)O)cc1 [F.2.1, 4-Butylbenzamide, N-[(1S,2R)-1-[[[(1R)-1-[13,15-dioxa-14-bora-dispiro[5.0.5.3]pentadec-14-yl]-3-methylbutyl]amino]carbonyl]-2-hydroxypropyl]-] | < 100 | 200 to 2000 |
| COc1ccc2cc([C@H](C)C(=O)N[C@@H](CCCNC(=N)N[N+](=O)[O-])C(=O)N[C@@H](CC(C)C)B3O[C@@H]4C[C@@H]5C[C@@H](C5(C)C)[C@]4(C)O3)ccc2c1 [D.3.93, (2S)-2-(6-Methoxynaphthalen-2-yl)-propanamide,N-[(1S)-1-[[[(1R)-1-[(3aS,4S,6S,7aR)-hexahydro-3a,5,5-trimethyl-4,6-methano-1,3,2-benzodioxaborol-2-yl]-3-methylbutyl]amino]carbonyl]-4-[[imino(nitroamino)methyl]amino]butyl]] | < 10 | < 200 |
| CC(C)C[C@H](NC(=O)[C@H](CCCNC(=N)N[N+](=O)[O-])NC(=O)CCCC1CCN(C)CC1)B1O[C@@H]2C[C@@H]3C[C@@H](C3(C)C)[C@]2(C)O1 [D.1.10, 4-(1-Methyl-piperidin-4-yl)-butanamide,N-[(1S)-1-[[[(1R)-1-[(3aS,4S,6S,7aR)-hexahydro-3a,5,5-trimethyl-4,6-methano-1,3,2-benzodioxaborol-2-yl]-3-methylbutyl]amino]carbonyl]-4-[[imino(nitroamino)methyl]amino]butyl]] | < 100 | 200 to 2000 |
| COc1ccccc1/C=C\C(=O)N[C@@H](CCCNC(=N)N[N+](=O)[O-])C(=O)N[C@@H](CC(C)C)B1O[C@@H]2C[C@@H]3C[C@@H](C3(C)C)[C@]2(C)O1 [D.3.31, cis-3-(2-Methoxyphenyl)acrylamide,N-[(1S)-1-[[[(1R)-1-[(3aS,4S,6S,7aR)-hexahydro-3a,5,5-trimethyl-4,6-methano-1,3,2-benzodioxaborol-2-yl]-3-methylbutyl]amino]carbonyl]-4-[[imino(nitroamino)methyl]amino]butyl]] | < 100 | 200 to 2000 |
| CCCCc1ccc(C(=O)N[C@@H](CNC(=O)Nc2ccccc2)C(=O)N[C@@H](CC(C)C)B2O[C@@H]3C[C@@H]4C[C@@H](C4(C)C)[C@]3(C)O2)cc1 [D.24.12, 4-Butylbenzamide, N-[(1S)-1-[[[(1R)-1-[(3aS,4S,6S,7aR)-hexahydro-3a,5,5-trimethyl-4,6-methano-1,3,2-benzodioxaborol-2-yl]-3-methylbutyl]amino]carbonyl]-2-(3-phenyl-ureido)ethyl]-] | < 10 | < 200 |
| CC(C)C[C@H](NC(=O)[C@H](CCCNC(=N)N[N+](=O)[O-])NC(=O)Cc1ccccc1)B(O)O [E.2.36, Boronic acid, [(1R)-1-[[(2S)-5-[[imino(nitroamino)methyl]amino]-2-[(2-phenylacetyl)amino]-1-oxopentyl]amino]-3-methylbutyl]] | < 10 | > 10000 |
| CCCCc1ccc(C(=O)N[C@H](C(=O)N[C@@H](CC(C)C)B(O)O)[C@@H](C)O)cc1 [E.3, Boronic Acid, [(1R)-1-[[(2S,3R)-3-hydroxy-2-[(4-butylbenzoyl)amino]-1-oxobutyl]amino]-3-methylbutyl]] | < 10 | < 200 |
| COCCOCCOCC(=O)N[C@H](C(=O)N[C@@H](CC(C)C)B1O[C@@H]2C[C@@H]3C[C@@H](C3(C)C)[C@]2(C)O1)[C@@H](C)O [D.3.175, 2-[2-(2-Methoxyethoxy)ethoxy]acetamide,N-[(1S,2R)-1-[[[(1R)-1-[(3aS,4S,6S,7aR)-hexahydro-3a,5,5-trimethyl-4,6-methano-1,3,2-benzodioxaborol-2-yl]-3-methylbutyl]amino]carbonyl]-2-hydroxypropyl]] | < 100 | 200 to 2000 |
| CCCCc1ccc(C(=O)N[C@@H](CNC(=O)NCCC)C(=O)N[C@@H](CC(C)C)B(O)O)cc1 [E.5.2, Boronic acid, [(1R)-1-[[(2S)-3-(propylureido)-2-[(4-butyl)-benzoylamino]-1-oxopropyl]amino]-3-methylbutyl]] | < 10 | < 200 |
| CCCCCCCCCC(=O)N[C@@H](CNC(=O)CCCCC)C(=O)N[C@@H](CC(C)C)B(O)O [E.5.13, Boronic acid, [(1R)-1-[[(2S)-3-(hexanonylamino)-2-[(decanoylamino)]-1-oxopropyl]amino]-3-methylbutyl]] | < 10 | < 200 |
| CC(C)C[C@H](NC(=O)[C@H](CCCNC(=N)N[N+](=O)[O-])NC(=O)c1cnccn1)B1O[C@@H]2C[C@@H]3C[C@@H](C3(C)C)[C@]2(C)O1 [D.1.2] | < 100 | 200 to 2000 |
| CC(=O)NCC(=O)N[C@@H](CCCNC(=N)N[N+](=O)[O-])C(=O)N[C@@H](CC(C)C)B1O[C@@H]2C[C@@H]3C[C@@H](C3(C)C)[C@]2(C)O1 [D.1.11, 2-Acetylamino-acetamide,N-[(1S)-1-[[[(1R)-1-[(3aS,4S,6S,7aR)-hexahydro-3a,5,5-trimethyl-4,6-methano-1,3,2-benzodioxaborol-2-yl]-3-methylbutyl]amino]carbonyl]-4-[[imino(nitroamino)methyl]amino]butyl]] | < 100 | > 10000 |
| CC(C)C[C@H](NC(=O)[C@H](CCCNC(=N)N[N+](=O)[O-])NC(=O)CCCCc1ccc(F)cc1)B(O)O [D.7.20, Boronic acid, [(1R)-1-[[(2S)-5-[[imino(nitroamino)methyl]amino]-2-[[5-(4-fluorophenyl)pentanoyl]amino]-1-oxopentyl]amino]-3-methylbutyl]] | < 10 | 2000 to 10000 |
